{"source": "patent US20230340012A1", "about": "“NATURAL AND SYNTHETIC COMPOUNDS FOR TREATING CANCER AND OTHER DISEASES” (PACIFIC ARROW LIMITED, priority 2009, published 2023)", "key": {"[1]": {"test_system": "Swiss3T3 cells", "experiment": "MTT cytotoxicity, Swiss3T3 mouse normal fibroblast", "assay_type": "cell-based", "conditions": "preliminary results", "experimental": "Swiss3T3 cells are mouse normal fibroblast which were used in this experiment to compare with ES2 (human ovarian cancer) in Tig-R cytotoxicity determination.\nMTT Assay. The procedure for MTT assay followed the method described by Carmichael et al. (1987) with modifications. The cells were seeded into a 96-well plate at for 24 hours before drug-treatment. The cells were then exposed to the drugs for 48, 72, or 96 hours. After the drug-treatment, MTT (0.5 mg/mL) was added to cultures and incubated for an hour. The formazan (product of the reduction of tetrazolium by viable cells) formed and was dissolved with DMSO and the O.D. at 490 nm, and was measured by an ELISA reader. The MTT level of the cells before drug-treatment was also measured (T0). The % cell-growth (%G) is calculated as: %G = (TD-T0 / TC-T0) x 100(1), where TC or TD represents O.D. readings of control or drug-treated cells. When T0 > TD, then the cytotoxicity (LC) expressed as % of the control is calculated as: %LC = (TD-T0 / T0) × 100(2)."}, "[2]": {"test_system": "DR5 (TNFRSF10B) in CAPAN cells", "experiment": "DR5 Western blot, CAPAN cells", "assay_type": "cell-based, human", "conditions": "Tig-R 10 ug/ml, 2 days", "experimental": "A. Cells and drug-treatment: HepG2 cells (liver cancer cells), CAPAN cells, ES2 cells (Ovary cell) were cultured in DMEM medium with 10% FBS, antibiotics (Pen Strep) and L-Glutamine in a 37° C., 5% CO2 incubator. Cells in log-growth phase were treated with Tig-R (10 ug/ml), Tig-S (4 ug/ml) or DMSO (as control) for 2 days.\nB. Total cell protein extraction: Drug-treated cells were collected, pelleted with centrifugation. The cell pellet was extracted with SDS-Sample buffer (containing PMSF and protease inhibitors cocktail). About 0.1 gram cell pellet was extracted in 1 ml of extraction buffer. The cell extract was then incubated in boiling water bath for 6 minutes with occasionally vortexing. The protein extract was immediately frozen in -80° C. before used.\nC. SDS gel electrophoresis: 10-20 ug of protein sample was loaded into each lane of a 10% SDS gel. Electrophoresis was conducted with 100 volt constant for 2 hours.\nD. Western Blot: Separated proteins from SDS gel were transferred to a nitrocellulose membrane, which was blocked with 5% non-fat dry milk. The membrane was then exposed to 1st antibody (anti-TNFRSF10B) over night, then washed. The membrane was then incubated in 2nd antibody (anti-mouse-AP conjugated) for an hour, then washed. The immuno-bands were developed with BCIP/NBT substrate.\nE. Another SDS gel with same sample loading was stained with Coomassie Brilliant Blue (CBB) for protein staining.\nF. Determination of Western blot band intensity: The band-images of Western blot were captured with a digital camera and the intensity of bands was determined using “Image J” software."}}, "data": [{"substance": "24,28-O-Tigloyl-3β,16α, 21β, 22a, 24β, 28-hexahydroxyolean-12-ene [Tig-R]", "values": [{"measurement": "IC50 in SW3T3 cells", "setting": "[1]", "result": "above 20 ug/ml"}, {"measurement": "DR5 Western blot band intensity (Image J)", "setting": "[2]; CAPAN cells", "result": 29128}, {"measurement": "DR5 band intensity, % of DMSO", "setting": "[2]; CAPAN cells", "result": 151, "unit": "%"}, {"measurement": "increase of DR5 over DMSO control cells", "setting": "[2]; CAPAN", "result": 51, "unit": "%"}]}]}
